Test results: patent US20260021296A1, “ION[…]” (KANEKA CORPORATION, priority 2023, published 2026)

Experiment: Evaluation of skin permeability of drug by iontophoresis in a vertical Franz cell
Type: in vitro ADME, hairless rat (HWY/Slc)
Procedure: The excised abdominal skin of a depilated male hairless rat (HWY/Slc, SPF, 5 weeks old) was punched into a 3.2 cm diameter circle and set in a vertical Franz cell. To the donor chamber of the Franz cell, 1.5 mL of a 0.5 wt % lanreotide acetate solution was added as a drug 31, and a zinc plate (0.5 cm×2 cm×0.5 mm) was immersed therein to form an anode 21. PBS was used as a receptor solution in the receptor chamber, and a silver/silver chloride rod (11 cm in length, 1 mm q in diameter) was inserted from the sampling port to form a cathode 22. The zinc plate and the silver/silver chloride rod were connected to the same power supply 10 and control unit 50 as those used in the skin irritability evaluation described above.
Example 4: A pulse current with a frequency of […], a period of 100 ms, a duty ratio of 50%, a rectangular waveform, and a current density of 0.35 mA/cm^2 was applied.
Comparative Example 6: Instead of a pulse current, a current with a substantially constant current value and a current density of 0.35 mA/cm^2 was applied.
Comparative Example 7: No current was applied.
In order to match the total time of current application (total amount of applied current), the current was applied for 6 hours in Example 4 and for 3 hours in Comparative Example 6. Example 4 and Comparative Examples 6 to 7 were all conducted with n=3.
Three items were evaluated: the cumulative amount of drug permeated, the permeation rate, and the relationship between the cumulative permeation amount and the quantity of electricity.
The receptor solution was sampled every hour, the amount of drug permeated through the skin was quantified by high-performance liquid chromatography (HPLC), and the above three items were evaluated with time. In Comparative Example 6, even after the end of the current application, the sampling was continued until 6 hours elapsed from the start of the test, as in Example 4 and Comparative Example 7. The HPLC measurement conditions are shown below.

CC(C)[C@@H]1NC(=O)[C@H](CCCCN)NC(=O)[C@@H](Cc2c[nH]c3ccccc23)NC(=O)[C@H](Cc2ccc(O)cc2)NC(=O)[C@@H](NC(=O)[C@H](N)Cc2ccc3ccccc3c2)CSSC[C@@H](C(=O)N[C@H](C(N)=O)[C@@H](C)O)NC1=O [lanreotide acetate]
time from start of test at which permeation of the drug through the skin was observed (Comparative Example 6: substantially constant current 0.35 mA/cm^2, applied 3 hours, 0.5 wt % solution, n=3): about 2 hours
drug skin permeability (rank among current conditions, FIGS. 8 and 9) (Comparative Example 7: no current applied): lowest
time from start of test until which permeation of the drug through the skin was not observed (Comparative Example 7: no current applied, 0.5 wt % solution, n=3): ≥ 4 h
drug skin permeability (rank among current conditions, FIGS. 8 and 9) (Example 4: pulse current 5 Hz, duty ratio 50%, 0.35 mA/cm^2): highest
time from start of test at which permeation of the drug through the skin was observed (Example 4: pulse current 5 Hz, duty ratio 50%, rectangular waveform, 0.35 mA/cm^2, applied 6 hours, 0.5 wt % solution, n=3): about 2 hours
cumulative permeation amount of Example 4 relative to Comparative Example 6 at the same quantity of electricity (final) (pulse current (Example 4) versus constant current (Comparative Example 6), 0.35 mA/cm^2, FIG. 10): ≥ 5 times
